# Legend:
# D2 dopaminergic receptor = D2 dopaminergic receptor (Homo sapiens, UniProt P14416); test: Radioligand receptor binding assay, D2 dopaminergic
# [1] = target: alpha 2 adrenergic receptor; test: Radioligand receptor binding assay, alpha 2 adrenergic
# human 5-HT2B receptor = target: T1, human 5-HT2B receptor (Homo sapiens, UniProt P41595); test: G alpha q-GTPγ[35S] binding agonist activity assay (ISPA), 5-HT2B; type: biochemical
# T1 construct: expressed in transfected cells; host or cells: AV12 cells
# Procedure: Agonist Activity Assays (G Alpha g-GTPγ[^35S] Binding Assays)
# The 5-HT2 receptors are functionally coupled to specific G-proteins. Agonist activation of 5-HT2 G-protein-coupled receptors results in the release of GDP from the α-subunit (G alpha q or G alpha i) of the G-protein and the subsequent binding of GTP. The binding of the stable analog GTPγ[^35S] is an indicator of receptor activation (i.e. agonist activity).
# The area under the dose response curve (AUC) is also determined for each receptor subtype and used to measure the test compound's selectivity for the 5-HT2C receptor over the 5-HT2A and 5-HT2B receptors, expressed as Selectivity Ratios (AUC 2C/2A and AUC 2C/2B, respectively). The Selectivity Ratios allow the assessment of selectivity based on both potency and efficacy. A selectivity measure that incorporates both potency and efficacy at the 5-HT2C receptor, as compared to the 5-HT2A and 5-HT2B.receptors, is considered important due to the adverse events associated with 5-HT2A and 5-HT2B agonist activity (see introduction). […]
# G alpha q-GTPγ[^35S] […] Quantitate the GTPγ[^35] binding by microtiter plate scintillation spectrometry (Wallac Trilux MicroBeta™ scintillation counter). […]
# Wistar rats = test: Schedule-induced polydipsia; type: in vivo, rat
# Source text: Food-deprived rats exposed to intermittent presentations of food will drink amounts of water that are far in excess of their normal daily intake and in excess of their intake when given all of their food at one time (Falk J L. “Production of polydipsia in normal rats by an intermittent food schedule”, Science 133: 195-196, (1961)). This excessive behavior is persistent and has been used to model OCD.
# Maintain Wistar rats on a food restricted diet (to maintain 85% free feeding weight), but with free access to water. Train the rats in a behavioral testing chamber to press a lever to receive a food pellet under a fixed interval schedule, such that the rats are rewarded with a 45 mg food pellet the first time they press a lever after a 120 second interval has elapsed. The fixed interval is then reset to 120 seconds and the process repeated. Thus, during a 90 min. test session, the rats can earn a maximum of 45 pellets. The behavioral chamber is also equipped with a water bottle that is weighed before and after the session to determine the amount of water consumed.
# Administer test compounds on Tuesdays and Fridays. Determine control day performances on Thursdays. Administer compounds either orally at 60 min. before the beginning of a test session, or subcutaneously at 20 min. before the beginning of a test session. Compare the rates of lever pressing and water consumption for each animal's performance during sessions after test compound treatment with that animal's performance during control sessions, expressed as a percent of the control rate. Average the individual percent of control rates for each dose and calculate the standard error of the mean.
# The in vivo efficacy of 5HT2C compounds at the 5HT2C receptor was confirmed by the prevention of effects of the 5HT2C agonists on excessive drinking by co-administration of the 5HT2C receptor antagonist, 6-chloro-5-methyl-N-(2-(2-methylpyridin-3-yl-oxy)pyridin-5-yl)aminocarbonyl)-2,3-dihydroindole.
# T1 sequence (P41595 whole entry): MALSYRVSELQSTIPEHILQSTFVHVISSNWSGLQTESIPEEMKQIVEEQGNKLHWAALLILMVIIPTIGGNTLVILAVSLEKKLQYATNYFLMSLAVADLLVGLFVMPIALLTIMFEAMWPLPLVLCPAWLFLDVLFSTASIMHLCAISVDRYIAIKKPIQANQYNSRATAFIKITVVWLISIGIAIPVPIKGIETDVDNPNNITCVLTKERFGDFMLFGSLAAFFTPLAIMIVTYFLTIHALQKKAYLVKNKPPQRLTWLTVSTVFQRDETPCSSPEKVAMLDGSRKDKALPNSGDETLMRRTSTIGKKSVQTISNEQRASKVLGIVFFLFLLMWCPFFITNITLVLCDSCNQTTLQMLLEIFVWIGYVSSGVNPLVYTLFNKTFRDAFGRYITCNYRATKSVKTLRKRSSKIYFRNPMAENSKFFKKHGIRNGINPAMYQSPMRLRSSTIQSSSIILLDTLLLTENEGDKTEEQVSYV
# Chain of D2 dopaminergic receptor (P14416 whole entry): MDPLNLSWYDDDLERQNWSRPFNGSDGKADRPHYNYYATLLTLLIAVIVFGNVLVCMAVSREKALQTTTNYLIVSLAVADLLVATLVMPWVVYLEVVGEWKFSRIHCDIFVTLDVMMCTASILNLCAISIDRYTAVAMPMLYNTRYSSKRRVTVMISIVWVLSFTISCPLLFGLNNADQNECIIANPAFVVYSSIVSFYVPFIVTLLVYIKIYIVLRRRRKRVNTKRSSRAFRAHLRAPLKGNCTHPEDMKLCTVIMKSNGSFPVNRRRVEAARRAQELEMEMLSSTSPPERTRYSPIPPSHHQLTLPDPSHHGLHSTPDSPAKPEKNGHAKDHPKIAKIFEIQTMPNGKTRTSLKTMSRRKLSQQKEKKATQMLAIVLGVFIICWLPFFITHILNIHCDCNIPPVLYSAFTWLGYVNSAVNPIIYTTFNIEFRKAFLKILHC
structure (smiles),measurement,setting,value
"FC(F)(F)CNc1c(Cl)ccc2c1CCNCC2.O=C(O)CCC(=O)O [Example 2, 7-Chloro-6-(2,2,2-trifluoroethylamino)-2,3,4,5-tetrahydro-1H-benzo[d]azepine Succinic Acid Salt]",IC50,D2 dopaminergic receptor,> 3 µM
same,IC50,[1],> 3 µM
same,Emax,human 5-HT2B receptor,33.9 ± 1%
same,EC50,"human 5-HT2B receptor; AV12 cell membranes with human 5-HT2B, ± standard error of the mean",0.119 ± 0.034 µM
same,schedule-induced polydipsia (excessive drinking),"Wistar rats; food restricted rats, 90 min. test session","suppress schedule-induced polydipsia without producing notable changes in motor patterns, food intake, or behavior the following day"
same,suppression of excessive drinking with co-administration of the 5-HT2C receptor antagonist,Wistar rats; rats,blocked
